Read-outs that look alike come from different tables or passages of the source. One block for each compound: values may come before it.
System: H1650 cells
Experiment: CellTiterGlo (CTG) cell viability, 3D, 120 h, H1650 (Example 8)
Format: cell-based, human
Conditions: Homo sapiens, NCI-H1650, H1650 3D
Procedure: H1650 cells were cultivated in RPMI supplemented with 10% heat inactivated fetal bovine serum, penicillin (100 IU/ml), streptomycin (100 μg/ml) and L-glutamine (2 mM). Cell lines were cultured at 37° C. in a humidified atmosphere containing 5% 002. Cells were seeded in 96 microwell round bottom plates (96 microwell Low attachment plates , Costar reference 7007) and exposed to the payloads or ADCs for 120 h (serially diluted; 9 concentrations each, duplicates). Effects of payloads or ADCs on cell viability were assessed after 5 days of incubation at 37° C./5% CO2 by quantification of cellular ATP levels using CellTiterGlo at 75 μL reagent/well. All the conditions were tested in duplicates. Luminescence was quantified on a multipurpose plate reader. IC50S were calculated using standard four-parametric curve fitting. […] Each experiment was performed at least twice, with results being reproducible.

[1] = experiment n1, read-out: H1650 3D CTG IC50 n1
[2] = experiment n2, read-out: H1650 3D CTG IC50 n2
[3] = mean of n1 and n2, read-out: H1650 3D CTG IC50 Mean of n1 and n2

Structure (SMILES): COCCCN(C)CCOC12CC3(C)CC(C)(CC(Cn4ncc(-c5ccc(N6CCCc7c6nnc(Nc6nc8ccccc8s6)c7C)nc5C(=O)O)c4C)(C3)C1)C2 [P36, 6-[3-(1,3-benzothiazol-2-ylamino)-4-methyl-6,7-dihydro-5H-pyrido[2,3-c]pyridazin-8-yl]-3-[1-[[3-[2-[3-methoxypropyl(methyl)amino]ethoxy]-5,7-dimethyl-1-adamantyl]methyl]-5-methyl-pyrazol-4-yl]pyridine-2-carboxylic acid]
- IC50 [1]: 0.26 nM
- IC50 [2]: 0.31 nM
- IC50 [3]: 0.29 nM

Structure (SMILES): Cc1c(Nc2nc3ccccc3s2)nnc2c1CCCN2c1ccc(-c2cnn(C[C@]34C[C@]5(C)C[C@](C)(C3)C[C@@](OCCN(C)CCCCO)(C5)C4)c2C)c(C(=O)O)n1 [P37, 6-[3-(1,3-benzothiazol-2-ylamino)-4-methyl-6,7-dihydro-5H-pyrido[2,3-c]pyridazin-8-yl]-3-[1-[[3-[2-[4-hydroxybutyl(methyl)amino]ethoxy]-5,7-dimethyl-1-adamantyl]methyl]-5-methyl-pyrazol-4-yl]pyridine-2-carboxylic acid]
- IC50 [1]: 0.4 nM
- IC50 [2]: 1.2 nM
- IC50 [3]: 0.8 nM

Structure (SMILES): Cc1c(Nc2nc3ccccc3s2)nnc2c1CCCN2c1ccc(-c2cnn(CC34CC5(C)CC(C)(C3)CC(OCCN3CCCCC3)(C5)C4)c2C)c(C(=O)O)n1 [P38, 6-[3-(1,3-benzothiazol-2-ylamino)-4-methyl-6,7-dihydro-5H-pyrido[2,3-c]pyridazin-8-yl]-3-[1-[[3,5-dimethyl-7-[2-(1-piperidyl)ethoxy]-1-adamantyl]methyl]-5-methyl-pyrazol-4-yl]pyridine-2-carboxylic acid]
- IC50 [1]: 0.19 nM
- IC50 [2]: 0.33 nM
- IC50 [3]: 0.26 nM

Structure (SMILES): COc1ccc2sc(Nc3nnc4c(c3C)CCCN4c3ccc(-c4cnn(C[C@]56C[C@]7(C)C[C@](C)(C5)C[C@@](OCCN5CCCC5)(C7)C6)c4C)c(C(=O)O)n3)nc2c1 [P43, 3-[1-[[3,5-dimethyl-7-(2-pyrrolidin-1-ylethoxy)-1-adamantyl]methyl]-5-methyl-pyrazol-4-yl]-6-[3-[(5-methoxy-1,3-benzothiazol-2-yl)amino]-4-methyl-6,7-dihydro-5H-pyrido[2,3-c]pyridazin-8-yl]pyridine-2-carboxylic acid]
- IC50 [1]: 0.53 nM
- IC50 [2]: 0.5 nM
- IC50 [3]: 0.52 nM

Structure (SMILES): Cc1c(Nc2nc3ccccc3s2)nnc2c1CCCN2c1ccc(-c2cnn(CC34CC5(C)CC(C)(C3)CC(OCCNCC(=O)O)(C5)C4)c2C)c(C(=O)O)n1 [P47, 6-[3-(1,3-benzothiazol-2-ylamino)-4-methyl-6,7-dihydro-5H-pyrido[2,3-c]pyridazin-8-yl]-3-[1-[[3-[2-(carboxymethylamino)ethoxy]-5,7-dimethyl-1-adamantyl]methyl]-5-methyl-pyrazol-4-yl]pyridine-2-carboxylic acid]
- IC50 [1]: 6.54 nM
- IC50 [2]: 7.35 nM
- IC50 [3]: 6.95 nM

Structure (SMILES): Cc1c(Nc2nc3ccccc3s2)nnc2c1CCCN2c1ccc(-c2cnn(CC34CC5(C)CC(C)(CC(CCCN(C)CCO)(C5)C3)C4)c2C)c(C(=O)O)n1 [P49, 6-[3-(1,3-benzothiazol-2-ylamino)-4-methyl-6,7-dihydro-5H-pyrido[2,3-c]pyridazin-8-yl]-3-[1-[[3-[3-[2-hydroxyethyl(methyl)amino]propyl]-5,7-dimethyl-1-adamantyl]methyl]-5-methyl-pyrazol-4-yl]pyridine-2-carboxylic acid]
- IC50 [1]: 1.3 nM
- IC50 [2]: 1.12 nM
- IC50 [3]: 1.21 nM

Continued by falling IC50 [1], values first:

- IC50 [1]: 9.4 nM
- IC50 [2]: 12.9 nM
- IC50 [3]: 11.2 nM
Structure (SMILES): Cc1ccc2sc(Nc3nnc4c(c3C)CCCN4c3ccc(-c4cnn(C[C@]56C[C@]7(C)C[C@](C)(C5)C[C@@](OCCN5CCCC5)(C7)C6)c4C)c(C(=O)O)n3)nc2c1 [P42, 3-[1-[[3,5-dimethyl-7-(2-pyrrolidin-1-ylethoxy)-1-adamantyl]methyl]-5-methyl-pyrazol-4-yl]-6-[4-methyl-3-[(5-methyl-1,3-benzothiazol-2-yl)amino]-6,7-dihydro-5H-pyrido[2,3-c]pyridazin-8-yl]pyridine-2-carboxylic acid]

- IC50 [1]: 3.3 nM
- IC50 [2]: 2.1 nM
- IC50 [3]: 2.7 nM
Structure (SMILES): Cc1c(Nc2nc3ccccc3s2)nnc2c1CCCN2c1ccc(-c2cnn(C[C@]34C[C@@]5(C)C[C@](C)(C[C@](CCCN6CCCC6)(C5)C3)C4)c2C)c(C(=O)O)n1 [P41, 6-[3-(1,3-benzothiazol-2-ylamino)-4-methyl-6,7-dihydro-5H-pyrido[2,3-c]pyridazin-8-yl]-3-[1-[[3,5-dimethyl-7-(3-pyrrolidin-1-ylpropyl)-1-adamantyl]methyl]-5-methyl-pyrazol-4-yl]pyridine-2-carboxylic acid]

- IC50 [1]: 2.27 nM
- IC50 [2]: 2.79 nM
- IC50 [3]: 2.53 nM
Structure (SMILES): Cc1c(Nc2nc3ccccc3s2)nnc2c1CCCN2c1ccc(-c2cnn(CC34CC5(C)CC(C)(C3)CC(OCCN(C)CC(=O)O)(C5)C4)c2C)c(C(=O)O)n1 [P48, 6-[3-(1,3-benzothiazol-2-ylamino)-4-methyl-6,7-dihydro-5H-pyrido[2,3-c]pyridazin-8-yl]-3-[1-[[3-[2-[carboxymethyl(methyl)amino]ethoxy]-5,7-dimethyl-1-adamantyl]methyl]-5-methyl-pyrazol-4-yl]pyridine-2-carboxylic acid]

- IC50 [1]: 0.65 nM
- IC50 [2]: 0.87 nM
- IC50 [3]: 0.76 nM
Structure (SMILES): Cc1c(Nc2nc3ccccc3s2)nnc2c1CCCN2c1nc(C(=O)O)c(CCCOc2ccc(C#CCN(C)CC[C@H](O)CO)cc2F)s1 [P34, 2-[3-(1,3-benzothiazol-2-ylamino)-4-methyl-6,7-dihydro-5H-pyrido[2,3-c]pyridazin-8-yl]-5-[3-[4-[3-[[(3S)-3,4-dihydroxybutyl]-methyl-amino]prop-1-ynyl]-2-fluoro-phenoxy]propyl]thiazole-4-carboxylic acid]

- IC50 [1]: 0.55 nM
- IC50 [2]: 0.21 nM
- IC50 [3]: 0.38 nM
Structure (SMILES): COCCCN(C)CCCC12CC3(C)CC(C)(C1)CC(Cn1ncc(-c4ccc(N5CCCc6c5nnc(Nc5nc7ccccc7s5)c6C)nc4C(=O)O)c1C)(C3)C2 [P50, 6-[3-(1,3-benzothiazol-2-ylamino)-4-methyl-6,7-dihydro-5H-pyrido[2,3-c]pyridazin-8-yl]-3-[1-[[3-[3-[3-methoxypropyl(methyl)amino]propyl]-5,7-dimethyl-1-adamantyl]methyl]-5-methyl-pyrazol-4-yl]pyridine-2-carboxylic acid]

- IC50 [1]: 0.23 nM
- IC50 [2]: 0.27 nM
- IC50 [3]: 0.25 nM
Structure (SMILES): Cc1c(Nc2nc3ccccc3s2)nnc2c1CCCN2c1ccc(-c2cnn(C[C@]34C[C@]5(C)C[C@](C)(C3)C[C@@](OCCN(C)CCO)(C5)C4)c2C)c(C(=O)O)n1 [P35, 6-[3-(1,3-benzothiazol-2-ylamino)-4-methyl-6,7-dihydro-5H-pyrido[2,3-c]pyridazin-8-yl]-3-[1-[[3-[2-[2-hydroxyethyl(methyl)amino]ethoxy]-5,7-dimethyl-1-adamantyl]methyl]-5-methyl-pyrazol-4-yl]pyridine-2-carboxylic acid]

- IC50 [1]: 0.21 nM
- IC50 [2]: 0.34 nM
- IC50 [3]: 0.28 nM
Structure (SMILES): Cc1c(Nc2nc3ccccc3s2)nnc2c1CCCN2c1ccc(-c2cnn(C[C@]34C[C@]5(C)C[C@](C)(C3)C[C@@](OCCN3CCOCC3)(C5)C4)c2C)c(C(=O)O)n1 [P39, 6-[3-(1,3-benzothiazol-2-ylamino)-4-methyl-6,7-dihydro-5H-pyrido[2,3-c]pyridazin-8-yl]-3-[1-[[3,5-dimethyl-7-(2-morpholinoethoxy)-1-adamantyl]methyl]-5-methyl-pyrazol-4-yl]pyridine-2-carboxylic acid]

Reference: patent US20240269304A1, “BCL-XL INHIBITOR ANTIBODY-DRUG CONJUGATES AND METHODS OF USE THEREOF” (Novartis AG, priority 2020, published 2024)
